From the supplement of paper PMC10307832 come the findings set out here.

Common to all, as to assay: relative viability (nuclei count vs DMSO), 5 days (fraction); higher = more cells survive
Compound in test [1]: C1=CC=C(C(=C1)C2=CC=C(C=C2)C3=CSC4=C3C(=C(C(=O)N4)C#N)O)O + Cc1nc(NC(=O)N2CCC[C@H]2C(N)=O)sc1-c1ccnc(C(C)(C)C(F)(F)F)c1 [Alpelisib] (partner 2 µM)
A digest of the protocol:
(§1)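 Five library-drug doses in √10 steps were combined with a fixed anchor-drug dose, or a single drug was given alone, by pin tool to lung cancer cell lines in 1536-well plates the day after seeding. Nuclei were stained and counted after 5 days. Relative viability is the nuclei count in treated wells over that in vehicle wells, taken as the median of duplicate plates.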

Compound in test [2]: O=C(CCCCCCNC(=O)c1cnc(N(c2ccccc2)c2ccccc2)nc1)NO [Ricolinostat] + Cc1nc(NC(=O)N2CCC[C@H]2C(N)=O)sc1-c1ccnc(C(C)(C)C(F)(F)F)c1 [Alpelisib] (partner 2 µM)
The gist of the method: as §1

Compound in test [3]: CC1=CN2C(=O)C=C(N=C2C(=C1)C(C)NC3=CC=CC=C3)N4CCOCC4 [TGX 221] + Cc1nc(NC(=O)N2CCC[C@H]2C(N)=O)sc1-c1ccnc(C(C)(C)C(F)(F)F)c1 [Alpelisib] (partner 2 µM)
A digest of the protocol:
as §1

Compound in test [4]: CC1=CN2C(=O)C=C(N=C2C(=C1)C(C)NC3=CC=CC=C3)N4CCOCC4 [TGX 221] + C[C@@H](Oc1cc(-c2cnn(C3CCNCC3)c2)cnc1N)c1c(Cl)ccc(F)c1Cl [Crizotinib] (partner 1 µM)
A digest of the protocol: as §1

On to HARA, for which the relative viability in test [1] (first compound 0.253 µM) was 0.84; in test [1] (first compound 0.8 µM), 0.796; in test [1] (first compound 2.53 µM), 0.932; in test [1] (first compound 8 µM) it was 0.655; in test [2] (first compound 0.08 µM) it was 0.545; in test [2] (first compound 0.253 µM), 0.79. In addition, the relative viability came out at 0.693 in test [2] (first compound 0.8 µM); 0.618 in test [2] (first compound 2.53 µM); 0.778 in test [3] (first compound 0.08 µM); 0.659 in test [3] (first compound 0.253 µM); 0.803 in test [3] (first compound 0.8 µM); 0.574 in test [3] (first compound 2.53 µM). Also, the relative viability was 0.584 in test [3] (first compound 8 µM); 1.06 in test [4] (first compound 0.08 µM); 1.02 in test [4] (first compound 0.253 µM); 0.905 in test [4] (first compound 0.8 µM); 1.16 in test [4] (first compound 2.53 µM); 0.795 in test [4] (first compound 8 µM).
In the case of ChaGo-K-1, the relative viability in test [4] (first compound 0.08 µM) was 1.1; in test [4] (first compound 0.253 µM) it was 1.01; in test [4] (first compound 0.8 µM) it was 1.18; in test [4] (first compound 2.53 µM) it was 1.11; in test [4] (first compound 8 µM), 0.989.
Take HCC-366: the relative viability in test [1] (first compound 0.08 µM) worked out at 0.506; in test [1] (first compound 0.253 µM) it was 0.491; in test [1] (first compound 0.8 µM), 0.431; in test [1] (first compound 2.53 µM), 0.441; in test [1] (first compound 8 µM), 0.367; in test [2] (first compound 0.08 µM) it was 0.223. Also, the relative viability in test [2] (first compound 0.253 µM) came out at 0.407; in test [2] (first compound 0.8 µM) it was 0.398; in test [2] (first compound 2.53 µM), 0.433; in test [3] (first compound 0.08 µM), 0.307; in test [3] (first compound 0.253 µM) it was 0.234; in test [3] (first compound 0.8 µM), 0.245. Moreover, the relative viability in test [3] (first compound 2.53 µM) came out at 0.0984; in test [3] (first compound 8 µM), 0.127; in test [4] (first compound 0.08 µM), 0.561; in test [4] (first compound 0.253 µM) it was 0.524; in test [4] (first compound 0.8 µM), 0.483; in test [4] (first compound 2.53 µM), 0.448. Also, the relative viability in test [4] (first compound 8 µM) was found to be 0.398.
SW 1573: the relative viability in test [1] (first compound 0.08 µM) was 0.726; in test [1] (first compound 0.253 µM) it was 0.974; in test [1] (first compound 0.8 µM), 0.758; in test [1] (first compound 2.53 µM), 0.624; in test [1] (first compound 8 µM) it was 0.583; in test [2] (first compound 0.08 µM), 0.506. Also, the relative viability came out at 0.862 in test [2] (first compound 0.253 µM); 0.751 in test [2] (first compound 0.8 µM); 0.832 in test [2] (first compound 2.53 µM); 0.63 in test [3] (first compound 0.08 µM); 0.495 in test [3] (first compound 0.253 µM); 0.577 in test [3] (first compound 0.8 µM). The relative viability in test [3] (first compound 2.53 µM) worked out at 0.433; in test [3] (first compound 8 µM), 0.393; in test [4] (first compound 0.08 µM), 0.723; in test [4] (first compound 0.253 µM), 0.72; in test [4] (first compound 0.8 µM) it was 0.74; in test [4] (first compound 2.53 µM) it was 0.769. Also, in test [4] (first compound 8 µM), the relative viability came out at 0.756.
As for NCI-H1703, the relative viability in test [1] (first compound 0.08 µM) was 0.31; in test [1] (first compound 0.253 µM) it was 0.313; in test [1] (first compound 0.8 µM) it was 0.328; in test [1] (first compound 2.53 µM), 0.301; in test [1] (first compound 8 µM), 0.385; in test [2] (first compound 0.253 µM) it was 0.316. The relative viability in test [2] (first compound 0.8 µM) was determined as 0.401; in test [2] (first compound 2.53 µM) it was 0.377; in test [3] (first compound 0.08 µM), 0.269; in test [3] (first compound 0.253 µM), 0.222; in test [3] (first compound 0.8 µM) it was 0.176; in test [3] (first compound 2.53 µM), 0.267. In addition, the relative viability was determined as 0.235 in test [3] (first compound 8 µM); 0.797 in test [4] (first compound 0.08 µM); 0.618 in test [4] (first compound 0.253 µM); 0.715 in test [4] (first compound 0.8 µM); 0.31 in test [4] (first compound 2.53 µM); 0.54 in test [4] (first compound 8 µM).
